We go through six compounds from ChEMBL document CHEMBL5230086, “Contemporary approaches and future perspectives of antibacterial photodynamic therapy (aPDT) against methicillin-resistant Staphylococcus aureus (MRSA): A systematic review” (Eur J Med Chem, 2020).

A value given as a limit tells only on which side of the number the result lay.

Data set [1] concerns Staphylococcus aureus. The data set can be described thus: Photodynamic antibacterial activity against Methicillin-resistant Staphylococcus aureus assessed as reduction in bacterial colony forming unit at 500 microg/ml followed by photo-irradiation with 664 nm for 400 sec. The class given is functional. Conditions: dose 500 µg/ml, 0.1111 h.
Data set [2] deals with Staphylococcus aureus. In words: Photodynamic antibacterial activity against Methicillin-resistant Staphylococcus aureus assessed as reduction in bacterial colony forming unit at 300 microg/ml followed by photo-irradiation with 664 nm for 400 sec. The class given is functional. Conditions: dose 300 µg/ml, 0.1111 h.
Data set [3] is described as follows: Photodynamic antibacterial activity against mix of Methicillin-resistant Staphylococcus aureus-Pseudomonas aeruginosa assessed as reduction in bacterial colony forming unit at 300 microg/ml followed by photo-irradiation with 664 nm for 400 sec. The settings on record: dose 300 µg/ml, 0.1111 h. The class given is functional.
Data set [4] in a line: Photodynamic antibacterial activity against mix of Methicillin-resistant Staphylococcus aureus-Pseudomonas aeruginosa assessed as reduction in bacterial colony forming unit at 500 microg/ml followed by photo-irradiation with 664 nm for 400 sec. Conditions: dose 500 µg/ml, 0.1111 h. The class given is functional.
For data set [5], the system named is Staphylococcus aureus. The data set can be described thus: Photodynamic antibacterial activity against Methicillin-resistant Staphylococcus aureus assessed as reduction in bacterial growth at 250 microg/ml followed by photo-irradiation with 100 J/cm^2 light for 100 sec. Also noted: scale not given: the % may be the effect or the level left. The class given is functional. The settings on record: dose 250 µg/ml, 100 s.

Data set [6] concerns Staphylococcus aureus. In words: Photodynamic antibacterial activity against Methicillin-resistant Staphylococcus aureus infected C57 mouse excision wound model assessed as fold reduction in bacterial growth at 100 microg/ml,po for 15 mins followed by photo-irradiation with 360 J/cm^2 light for 30 mins. The class given is functional. The settings on record: dose 100 µg/ml, time 45 min, 0.75 h.

Data set [7] relates to Staphylococcus aureus. In words: Photodynamic antibacterial activity against Methicillin-resistant Staphylococcus aureus infected C57 mouse superficial wound model assessed as fold reduction in bacterial growth at 100 microg/ml,po for 15 mins followed by photo-irradiation with 360 J/cm^2 light for 30 mins. The settings on record: dose 100 µg/ml, time 45 min, 0.75 h. The class given is functional.

The nature of data set [8]: Photodynamic antibacterial activity against mix of Methicillin-resistant Staphylococcus aureus-Pseudomonas aeruginosa in endotracheal tube model assessed as reduction in growth unit at 500 microg/ml followed by photo-irradiation with 108 J/cm^2 light for 12 mins. Also noted: scale not given: the % may be the effect or the level left. The settings on record: dose 500 µg/ml, 0.2 h. The class given is functional.

Data set [9] is described as follows: Photodynamic antibacterial activity against mix of Methicillin-resistant Staphylococcus aureus-Pseudomonas aeruginosa in maxillary sinus model assessed as reduction in bacterial growth at 0.03 % followed by photo-irradiation with 150 mW/cm^2 light by spectrophotometry. The class given is functional. Also noted: scale not given: the % may be the effect or the level left.

Data set [10] is described as follows: Photodynamic antibacterial activity against mix of Methicillin-resistant Staphylococcus aureus-Pseudomonas aeruginosa in maxillary sinus model assessed as reduction in bacterial colony forming unit at 0.03 % followed by photo-irradiation with 150 mW/cm^2 light by spectrophotometry. The class given is functional.
The test system of data set [11] is Staphylococcus aureus. In words: Photodynamic antibacterial activity against Methicillin-resistant Staphylococcus aureus assessed as reduction in bacterial colony forming unit at 50 microg/ml followed by photo-irradiation with 163.8 J/cm^2 for 10 to 30 mins. The class given is functional. The settings on record: dose 50 µg/ml; time 10-30 min.
Data set [12] has as its system Staphylococcus aureus. In words: Photodynamic antibacterial activity against Methicillin-resistant Staphylococcus aureus assessed as reduction in bacterial colony forming unit at 3 uM followed by photo-irradiation with 30 J/cm^2 for 30 mins. The class given is functional. Conditions: 0.5 h.
Data set [13] in a line: Cytotoxicity against C57BL/6NCr mouse Neutrophil assessed as cell viability followed by photo-irradiation with 20 mW/cm^2 light by tryptan blue dye based hemacytometer. Conditions: mouse neutrophils, read-out: Activity. The class given is toxicity.
Data set [14] has as its system Staphylococcus aureus. The data set can be described thus: Photodynamic antibacterial activity against Methicillin-resistant Staphylococcus aureus assessed as reduction in bacterial growth followed by photo-irradiation with 25 J/cm^2 light for 15 mins by crystal violet staining assay. Also noted: scale not given: the % may be the effect or the level left. The class given is functional. Conditions: 0.25 h.

The test system of data set [15] is Staphylococcus aureus. In words: Photodynamic antibacterial activity against Methicillin-resistant Staphylococcus aureus assessed as reduction in bacterial colony forming unit at 8 uM followed by photo-irradiation with 30 J/cm^2 light. The class given is functional.
Data set [16] has as its system Staphylococcus aureus. The data set can be described thus: Photodynamic antibacterial activity against Methicillin-resistant Staphylococcus aureus infected Balb/C mouse assessed as reduction in lymph node bacterial colony forming unit at 1.5 %,ID followed by photo-irradiation with 54 J/cm^2 light measured upto 72 hrs. The class given is functional.
Data set [17] has as its system Staphylococcus aureus. The data set can be described thus: Photodynamic antibacterial activity against Methicillin-resistant Staphylococcus aureus in bovine bone assessed as reduction in bacterial colony forming unit at 1.5 g/L followed by photo-irradiation with 20.1 J/cm^2 light for 24 hrs by fluorescence spectroscopy. The class given is functional.
Data set [18] deals with Staphylococcus aureus. The data set can be described thus: Photodynamic antibacterial activity against Methicillin-resistant Staphylococcus aureus assessed as reduction in bacterial growth at 120 uM followed by photo-irradiation with blue light for 10 to 120 min. Conditions: time 10-120 min. The class given is functional. Further details: scale not given: the % may be the effect or the level left.

The test system of data set [19] is Staphylococcus aureus. The data set can be described thus: Photodynamic antibacterial activity against Methicillin-resistant Staphylococcus aureus assessed as reduction in bacterial growth at 30 uM followed by photo-irradiation with violet light for 10 to 120 min. The class given is functional. Further details: scale not given: the % may be the effect or the level left. Conditions: time 10-120 min.

For a further data set, the system named is Neutrophil. The data set can be described thus: Cytotoxicity against C57BL/6NCr mouse Neutrophil assessed as reduction in cell viability at 20 uM followed by photo-irradiation with 20 mW/cm^2 light by tryptan blue dye based hemacytometer. The class given is toxicity.
The test system of data set [20] is Staphylococcus aureus. In words: Photodynamic antibacterial activity against Methicillin-resistant Staphylococcus aureus assessed as reduction in bacterial growth at 0.01 % followed by photo-irradiation with 5405 J/cm^2 light for 30 min by microscopic analysis. The settings on record: 0.5 h. Further details: scale not given: the % may be the effect or the level left. The class given is functional.

Data set [21] has as its system Staphylococcus aureus. In words: Photodynamic antibacterial activity against Methicillin-resistant Staphylococcus aureus ATCC 43300 assessed as reduction in bacterial growth at 0.01 % followed by photo-irradiation with 412 nm at 5.4 J/cm^2 light for 10 min by microscopic analysis. Further details: scale not given: the % may be the effect or the level left. The class given is functional.

Data set [22] has as its system Staphylococcus aureus. The data set can be described thus: Photodynamic antibacterial activity against Methicillin-resistant Staphylococcus aureus ATCC 43300 assessed as reduction in bacterial growth at 0.01 % followed by photo-irradiation with 450 nm at 5.4 J/cm^2 light for 10 min by microscopic analysis. The class given is functional. Also noted: scale not given: the % may be the effect or the level left.

The subject of data set [23] is Staphylococcus aureus. In words: Photodynamic antibacterial activity against Methicillin-resistant Staphylococcus aureus clinical isolate 1 assessed as reduction in bacterial growth at 0.01 % followed by photo-irradiation with 5.4 J/cm^2 light for 30 min by microscopic analysis. The class given is functional. Further details: scale not given: the % may be the effect or the level left. Conditions: 0.5 h.

Data set [24] concerns Staphylococcus aureus. In words: Photodynamic antibacterial activity against Methicillin-resistant Staphylococcus aureus clinical isolate 2 assessed as reduction in bacterial growth at 0.01 % followed by photo-irradiation with 5.4 J/cm^2 light for 30 min by microscopic analysis. The class given is functional. Conditions: 0.5 h. Also noted: scale not given: the % may be the effect or the level left.

As for `CN(C)c1ccc2nc3ccc(N(C)C)cc3[s+]c2c1.[Cl-]` [METHYLENE BLUE ANHYDROUS], the Activity in the data set on Staphylococcus aureus [1] is 7.39 log10CFU; in the data set with Staphylococcus aureus [2], 6.7 log10CFU; in [3], 6.7 log10CFU; in data set [4], 7.39 log10CFU; in the data set on Staphylococcus aureus [5], above 99%; in [8], above 99.9%. The Activity was above 99.99% in [9], 5 log10CFU in [10], 2.2 log10CFU in the data set with Staphylococcus aureus [11] and 7 log10CFU in the data set with Staphylococcus aureus [12]. The “fold change (FC)” value in the data set with Staphylococcus aureus [6] came to 25; with Staphylococcus aureus [7], 14. Besides, the viability in data set [13] was above 80%.
In the case of `Cc1cc(O)c2c3c1-c1c(C)cc(O)c4c1C1c5c(c(O)cc(O)c5-c5c(O)cc(O)c(c5C31)C2=O)C4=O` (stereo not given), the Activity is recorded as 92.2% with Staphylococcus aureus [14] and above 6 log10CFU with Staphylococcus aureus [15].
For the compound `COc1cc(/C=C/C(=O)CC(=O)/C=C/c2ccc(O)c(OC)c2)ccc1O` [CURCUMIN], the figures for the Activity in the data set on Staphylococcus aureus [16] and in the data set on Staphylococcus aureus [17] were above 5 log10CFU and 3.6 log10CFU, respectively.
On to `Cc1cc2nc3c(=O)[nH]c(=O)nc-3n(C[C@H](O)[C@H](O)[C@H](O)COP(=O)(O)O)c2cc1C` [RIBOFLAVIN 5'-PHOSPHATE], for which the Activity with Staphylococcus aureus [18] was determined as 95.2%; with Staphylococcus aureus [19], 97%.
`CC/N=c1/cc2sc3cc(NCC)c(C)cc3nc-2cc1C.Cl`: the Activity with Neutrophil was below 70%.
For the compound `Cc1cc2c(cc1C)N(C[C@H](O)C[C@H](O)CO)C1NC(=O)NC(=O)C1=N2` (stereo not given in full), the Activity in the data set on Staphylococcus aureus [20] stood at 90%; in the data set with Staphylococcus aureus [21] it was 99%; with Staphylococcus aureus [22], 98%; in the data set on Staphylococcus aureus [23] it was 98%; in the data set on Staphylococcus aureus [24], 100%.
